Laboratory results published in patent US7351722B2, “Use of Mangafodipir for treating oxidative stress effects” (Universite Rene Descartes (Paris V), priority 2001, dated 2008).

Tests used:
[1] = system: hepatocellular deficiency; conditions: inventors' prior studies (PCT/WO 01/12327; Ferret et al. 2001); cited from earlier work
[2] = system: acetaminophen-induced acute hepatic failure; test: Animal survival in acetaminophen-induced acute hepatic failure, comparison of Mangafodipir, MnTBAP and CuDIPS (Example 7); assay type: in vivo, mice; conditions: for number of surviving animals: 10 mg/kg bolus 2 h before 1000 mg/kg APAP, n = 12
Method: The Mangafodipir, the MnTBAP or the CuDIPS are administered in the form of a bolus, in the preventive capacity, 2 hours before the acetaminophen.
Animal survival is monitored for 24 hours after the administration of acetaminophen.

SMILES | effect on hepatocellular deficiency [1] | number of surviving animals ([2]; time 0 h) | number of surviving animals ([2]; time 6 h) | number of surviving animals ([2]; time 8 h) | number of surviving animals ([2]; time 9 h) | number of surviving animals ([2]; time 10 h) | number of surviving animals ([2]; time 11 h) | number of surviving animals ([2]; time 12 h) | number of surviving animals ([2]; time 13 h) | number of surviving animals ([2]; time 14 h) | number of surviving animals ([2]; time 15 h) | number of surviving animals ([2]; time 16 h) | number of surviving animals ([2]; time 17 h) | number of surviving animals ([2]; time 18 h) | number of surviving animals ([2]; time 20 h) | number of surviving animals ([2]; time 22 h) | number of surviving animals ([2]; time 24 h) | effect on survival rate ([2]; 10 mg/kg preventively, 1000 mg/kg APAP, 24 h)
O=C(O)c1ccc(-c2c3nc(c(-c4ccc(C(=O)O)cc4)c4ccc([n-]4)c(-c4ccc(C(=O)O)cc4)c4nc(c(-c5ccc(C(=O)O)cc5)c5ccc2[n-]5)C=C4)C=C3)cc1.[Mn+3] [MnTBAP, Mn(III)-tetrakis(5,10,15,20-benzoic acid)-porphyrin] | notable preventive and curative effect | 12 | 12 | 12 | 12 | 11 | 10 | 10 | 10 | 9 | 9 | 8 | 8 | 8 | 8 | 7 | 7 | –
CC(C)c1cc(C(=O)[O-])c(O)c(C(C)C)c1.CC(C)c1cc(C(=O)[O-])c(O)c(C(C)C)c1.[Cu+2] [CuDIPS, Cu[II]-[diisopropylsalicylate]] | no significant effect | 12 | 12 | 11 | 10 | 9 | 7 | 7 | 5 | 5 | 5 | 4 | 4 | 3 | 3 | 3 | 3 | does not significantly increase the survival rate
